Assay results from US9717721B2, “Use of aryl-quinolin derivatives as inhibitors of vasculogenic mimicry” (TaiRx Inc., priority 2015, dated 2017).

Key:
[1] = test system: C8161 aggressive melanoma cells; assay: VM network formation in three-dimensional MATRIGEL, C8161 cells; type: cell-based, human; conditions: for VM network formation: all tested concentrations
Experimental: (§1) Aggressive human melanoma (C8161 or SK-MEL28; 1×10^5) cells were seeded into a three-dimensional polymerized MATRIGEL™ (75 μl) for VM network analysis. C8161 or SK-MEL28 cells were treated for 24 h with 0.5, 1, 5, 10, 25 or 50 or 100 nM of TRX-818 at 5 or 24 h after cell attachment. Another set of melanoma cells were seeded onto a plastic dish and treated for the same amount of time before the cell viability of C8161 or SK-MEL28 cells was determined using the Guava Nexin Assay (Millipore, USA).
(§2) The VM network image was taken using a confocal laser scanning microscope equipped with an environmental, chamber to track the response of cancer cells to the test compound. The images were then digitized and subsequently analyzed using the Angiosys software. Four images per sample were analyzed to quantify the number of junctions and total tubule length of VM formation. Changes were presented in percentage relative to the vehicle control. Sterile deionized water (tissue-culture grade) was used as the vehicle control.
(§3) Aggressive human melanoma (C8161, 7.5×10^4) cells were seeded as disclosed in Example 1. C8161 cells were treated tor 4 h or 24 h with 0.3, 1 or 5 nM of TRX-818M1. Another set of melanoma cells were seeded onto a plastic dish and treated for the same amount of time before the cell viability of C8161 cells was determined.

[2] = test system: SK-MEL-28 aggressive human melanoma cells; assay: Loss of pre-formed VM network in SK-MEL-28 cells on MATRIGEL; type: cell-based; conditions: 100 nM
Experimental: TRX-818 M1 (i.e., compound No. 38) structurally similar compounds were tested for their effect on inhibition of vasculogenic mimicry. Aggressive human melanoma (SK-MEL-28 from ATCC®; 7.5×10^4 mL medium) cells were seeded onto a three-dimensional polymerized MATRIGEL™-coated 24-well plate. After 18 h of cell seeding, VM network was formed. The medium was then replaced with negative controls (untreated and DMSO treated controls), a positive control (100 nM of TRX-818M1) or 100 nM of each testing compound.

[3] = test system: HCT-116 orthotopic human colon cancer xenograft; assay: HCT-116 orthotopic human colon cancer xenograft model; type: in vivo, mice; conditions: for animals found dead prior to study termination: ten mice/group
Experimental: The inhibitory effect of TRX-818 on tumor growth and VM formation of HCT-116, a highly metastatic colon tumor, was examined in a HCT-116 orthotopic xenograft model. The effect of TRX-818 was evaluated on the formation of the vascular or vascular-like (vasculogenic mimicry, VM) network by immunohistochemistry staining (IHC) in orthotopic xenograft human colon cancer model inoculated with HCT116 colon cancer cell lines
Six groups were set in this study (ten mice/group). There were: Group 1, TRX-818 at 20 mg/kg given as oral administration; Group 2, TRX-818 at 50 mg/kg given as oral administration; Group 3, TRX-818 at 100 mg/kg given as oral administration; Group 4, TRX-818 at 20 mg/kg given as intravenous injection; Group 5, Irinotecan at 50 mg/kg given as intraperitoneal injection; Group 6, vehicle group. Dose schedule for G1, G2, G3 and G6 was QD×28 and for G4 was QOD×7. Body weights were monitored for safety evaluation. Tumor size and tumor weight were measured at the end of in-life study. The percentage of tumor growth inhibition (TGI %) was calculated at the termination of the study for anti-tumor effect evaluation. The average body weight of study mice on Day 1 was ˜20 gram and decreased to ˜17-19 gram at the end of study (Day 42)
At the end of 28-day dosing, CO2 anesthesia (1 min) followed by cervical dislocation was used for mice euthanasia in the study prior to tumors and lungs excision. First, a ventral midline incision was made and colon with primary tumor was excised and collected. The tumor collection was completed in 3 minutes after euthanasia. The tissues were rinsed with PBS to remove the blood before fixation.
The number of channels with CD31^+/red blood cell (RBC)^+ or CD31^−/RBC^+ were counted on the whole section of each sample in each group, and the number of vessels with CD31 positive or negative staining were counted based on 5 light fields (200×) under microscope. The vascular network represented by the CD31^+/RBC^+ staining whereas the VM network represented by CD31^−/RBC^+ staining, because the VM formation is independent of vascular endothelial cells. The scoring was conducted by blinded, objective observer.

SK-MEL28 cancer cells = assay: VM network formation in three-dimensional MATRIGEL, SK-MEL28 cells; type: cell-based, human; conditions: 24 h treatment
Experimental: as §1, §2

[4] = test system: Aggressive human melanoma (C8161 or SK-MEL28) cells; assay: Quantification of number of junctions and total tubule length of VM formation (Angiosys); type: cell-based
Experimental: as §1, §2

[5] = test system: Notch4 intracellular domain (Notch 4 ICD); assay: qRT-PCR mRNA level of Notch4 ICD in C8161 cells; type: cell-based, human; conditions: 10 nM
Experimental: (§4) To determine whether TRX-818 reduced the VM network formation by altering the levels of the essential proteins for VM, its effect on Nodal, Notch4, VE-cadherin (CDHE5) or ephrin receptor A2 (Eph A2) expression was determined using qRT-PCR. 2×10^6 of aggressive human melanoma (C8161) cells were treated with 10 nM TRX-818 for 8, 24, 48, or 72 h. Sterile deionized water (tissue-culture grade) was used as vehicle.

Nodal = assay: qRT-PCR mRNA level of Nodal in C8161 cells; type: cell-based, human; conditions: 10 nM
Experimental: as §4

VE-cadherin (CDH5) = assay: qRT-PCR mRNA level of CDH5 in C8161 cells; type: cell-based, human; conditions: 10 nM
Experimental: as §4

Pro-Nodal = assay: Immunoblotting of Pro-Nodal protein in C8161 cells; type: cell-based, human; conditions: 10 nM
Experimental: (§5) To further understand how TRX-818 alters the signaling pathways required for VM network formation, the protein levels of Pro-Nodal, Smad2, and phosphorylated Smad2 (P-Smad2) were determined using immunoblotting analysis. On the day of study, TRX-818 was prepared as described in Example 1, C8161 cells were untreated (control) or treated with 10 nM TRX-818 for 1, 4, 8, and 24 h. Protein expression of Nodal and total Smad2, and P-Smad2 was analyzed by immunoblotting analysis, 5×10^6 aggressive human melanoma (C8161) cells were seeded onto a plastic dish in the presence of 10 nM TRX-818, and total proteins were collected for analysis. To quantify the protein levels of Nodal and P-Smad2, 40 μg and 25 μg of total proteins were used for SDS-PAGE and immunoblotting, respectively. The protein level of β-actin was used for normalization to assure equal protein loading.

[6] = test system: phosphorylated Smad2 (P-Smad2); assay: Immunoblotting of phosphorylated Smad2 in C8161 cells; type: cell-based, human; conditions: 10 nM
Experimental: as §5

Smad2 = assay: Immunoblotting of total Smad2 in C8161 cells; type: cell-based, human; conditions: 10 nM
Experimental: as §5

C8161 cells = assay: Cell viability of C8161 cells (Guava Nexin Assay); type: cell-based; conditions: higher concentrations in the nM range
Experimental: as §1, §3

O=c1cc(-c2ccccc2F)[nH]c2cc3c(cc12)OCO3 [CHM-2133, 2-(2-fluorophenyl)-6,7-methylenedioxyquinolin-4-one]
concentration effective as vascular disrupting agent [1]: ~0.3 nM
VM network formation [1]: inhibited

COc1cc2c(cc1O)N=C(c1ccccc1F)CC2=O [Compound 43, 2-(2-Fluorophenyl)-7-hydroxy-6-methoxyquinolin-4-one]
loss of VM network compared to negative controls ([2]; 5 h post treatment): mild loss of VM network
loss of VM network compared to negative controls ([2]; 24 h post treatment): marked loss of VM network

COc1ccc2[nH]c(-c3cccc(F)c3)cc(=O)c2c1OP(=O)(O)O [Compound 52, 2-(3-Fluorophenyl)-6-methoxy-4-oxo-1,4-dihydroquinolin-5-yl dihydrogen phosphate]
loss of VM network compared to negative controls ([2]; 5 h post treatment): mild loss of VM network
loss of VM network compared to negative controls ([2]; 24 h post treatment): marked loss of VM network

O=c1cc(-c2cccc(OP(=O)(O)O)c2)[nH]c2ccc(N3CCCC3)cc12 [Compound 147, 3-(4-Oxo-6-(pyrrolidin-1-yl)-1,4-dihydroquinolin-2-yl)phenyl dihydrogen phosphate]
loss of VM network compared to negative controls ([2]; 5 h post treatment): mild loss of VM network
loss of VM network compared to negative controls ([2]; 24 h post treatment): marked loss of VM network

O=c1cc(-c2cccc(F)c2)[nH]c2cc3c(cc12)OCO3 [Compound A6]
loss of VM network compared to negative controls ([2]; 5 h post treatment): mild loss of VM network
loss of VM network compared to negative controls ([2]; 24 h post treatment): marked loss of VM network

O=c1cc(-c2cccc(Cl)c2)[nH]c2ccc3c(c12)OCO3 [Compound B1]
loss of VM network compared to negative controls ([2]; 5 h post treatment): mild loss of VM network
loss of VM network compared to negative controls ([2]; 24 h post treatment): marked loss of VM network

COc1cccc(-c2cc(=O)c3c(O)c(OC)ccc3[nH]2)c1 [Compound B3]
loss of VM network compared to negative controls ([2]; 5 h post treatment): mild loss of VM network
loss of VM network compared to negative controls ([2]; 24 h post treatment): marked loss of VM network

CN(C)c1ccc2[nH]c(-c3cc(O)cc(F)c3)cc(=O)c2c1 [Compound C4]
loss of VM network compared to negative controls ([2]; 5 h post treatment): mild loss of VM network
loss of VM network compared to negative controls ([2]; 24 h post treatment): marked loss of VM network

O=c1cc(-c2cc(O)cc(F)c2)[nH]c2ccc(N3CCCC3)cc12 [Compound C6]
loss of VM network compared to negative controls ([2]; 5 h post treatment): mild loss of VM network
loss of VM network compared to negative controls ([2]; 24 h post treatment): marked loss of VM network

CCc1c2c(nc3ccc(OC(=O)N4CCC(N5CCCCC5)CC4)cc13)-c1cc3c(c(=O)n1C2)COC(=O)[C@]3(O)CC [Irinotecan, reference compound]
Average number of channels (CD31−/RBC+, VM) in the whole tumor section per group, Mean ± SEM ([3]; 50 mg/kg Q4D×3, i.p.): 1.1 ± 0.4

COc1ccc2[nH]c(-c3cccc(F)c3)cc(=O)c2c1OP(=O)(O)O [TRX-818, 2-(3-fluorophenyl)-6-methoxy-4-oxo-1,4-dihydroquinolin-5-yl phosphate]
concentration at which VM network formation was inhibited ([1]; 24 h treatment): 5 to 10 nM
concentration at which VM network formation was inhibited (SK-MEL28 cancer cells): 5 to 10 nM
No. of junctions, relative to vehicle control ([4]; 1 nM): −16.5%
Total tubule length, relative to vehicle control ([4]; 1 nM): −15.1%
No. of junctions, relative to vehicle control ([4]; 5 nM): −43.1%
Total tubule length, relative to vehicle control ([4]; 5 nM): −23.3%
maximal reduction of cell junctions ([4]; 5 nM): 43%
No. of junctions, relative to vehicle control ([4]; 10 nM): −35.9%
Total tubule length, relative to vehicle control ([4]; 10 nM): −26.0%
No. of junctions, relative to vehicle control ([4]; 50 nM): −42.9%
Total tubule length, relative to vehicle control ([4]; 50 nM): −47.5%
maximal reduction of total tubule length ([4]; 50 nM): 48%
decrease of Notch4 ICD mRNA level compared to control ([5]; 8 hours): 75%
mrna remaining at 0.01 µM ([5]; Homo sapiens, 72 h, read-out: Notch4 ICD mRNA level remaining, % of control cells): 50%
decrease of Nodal mRNA level compared to control (Nodal; 8 hours): 80%
mrna remaining at 0.01 µM (Nodal; Homo sapiens, 72 h, read-out: Nodal mRNA level remaining, % of control cells): 70%
decrease of CDH5 mRNA level compared to control (VE-cadherin (CDH5); 8 hours): 70%
mrna remaining at 0.01 µM (VE-cadherin (CDH5); Homo sapiens, 72 hours, read-out: CDH5 mRNA level remaining, % of control cells): 50%
decrease in Pro-Nodal protein level vs control cells (Pro-Nodal; 24 h): 63%
decrease in Pro-Nodal protein level vs control cells (Pro-Nodal; four to eight hours): 28%
decrease in Nodal protein expression (detected as Pro-Nodal) vs control cells (Pro-Nodal; one hour): 4%
P-Smad2/Smad2 post-treatment protein level (relative to untreated control cells) ([6]; 1 hour): −33%
P-Smad2 post-treatment protein level (relative to untreated control cells) ([6]; 1 hour): −4%
P-Smad2/Smad2 post-treatment protein level (relative to untreated control cells) ([6]; 4 hours): −60%
P-Smad2 post-treatment protein level (relative to untreated control cells) ([6]; 4 hours): −57%
P-Smad2/Smad2 post-treatment protein level (relative to untreated control cells) ([6]; 8 hours): −40%
P-Smad2 post-treatment protein level (relative to untreated control cells) ([6]; 8 hours): −39%
P-Smad2/Smad2 post-treatment protein level (relative to untreated control cells) ([6]; 24 hours): −76%
P-Smad2 post-treatment protein level (relative to untreated control cells) ([6]; 24 hours): −73%
Smad2 post-treatment protein level (relative to untreated control cells) (Smad2; 1 hour): +43%
Smad2 post-treatment protein level (relative to untreated control cells) (Smad2; 4 hours): +9%
Smad2 post-treatment protein level (relative to untreated control cells) (Smad2; 8 hours): +3%
Smad2 post-treatment protein level (relative to untreated control cells) (Smad2; 24 hours): +13%
animals found dead prior to study termination ([3]; 20 mg/kg QOD group (intravenous)): two
animals found dead prior to study termination ([3]; 50 mg/kg QD group): one
reduction of tumor volume compared to the vehicle group ([3]; 50 mg/kg oral QD×28, Day 43 post tumor inoculation): 49%
Average number of channels (CD31−/RBC+, VM) in the whole tumor section per group, Mean ± SEM ([3]; 100 mg/kg QD×28, p.o.): 0.8 ± 0.3
MED (Minimum Effective Dose) ([3]; orally administered): 50 mg/kg

COc1ccc2[nH]c(-c3cccc(F)c3)cc(=O)c2c1O [TRX-818M1, 2-(3-Fluorophenyl)-5-hydroxy-6-methoxyquinolin-4-one]
concentration effective as vascular disrupting agent [1]: ~0.3 nM
VM network formation [1]: inhibited
cell death (C8161 cells): induced cell death
loss of VM network compared to negative controls ([2]; 5 h post treatment): mild loss of VM network
loss of VM network compared to negative controls ([2]; 24 h post treatment): marked loss of VM network
